Measured values: ChEMBL document CHEMBL1221287 (Bioorg Med Chem Lett, 2010)

How the values were obtained:
[1] = biological target: Carbonic anhydrase 13 (Homo sapiens, UniProt Q8N1Q1)
Description: Inhibition of human carbonic anhydrase 13 after 15 mins by stopped flow CO2 hydration method

[2] = biological target: Carbonic anhydrase 5B, mitochondrial (Homo sapiens, UniProt Q9Y2D0)
Description: Inhibition of human carbonic anhydrase 5b after 15 mins by stopped flow CO2 hydration method

[3] = biological target: T1, Carbonic anhydrase 15 (Mus musculus, UniProt Q99N23)
T1 sequence (Q99N23 whole entry): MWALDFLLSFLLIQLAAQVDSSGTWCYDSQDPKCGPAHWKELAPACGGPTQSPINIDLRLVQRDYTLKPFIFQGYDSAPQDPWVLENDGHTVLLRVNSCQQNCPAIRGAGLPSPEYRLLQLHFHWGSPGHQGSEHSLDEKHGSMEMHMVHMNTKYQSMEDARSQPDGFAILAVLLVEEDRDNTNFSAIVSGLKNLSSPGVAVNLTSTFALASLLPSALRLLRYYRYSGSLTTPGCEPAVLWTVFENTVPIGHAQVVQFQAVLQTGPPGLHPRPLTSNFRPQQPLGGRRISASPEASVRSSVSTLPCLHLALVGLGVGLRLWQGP
Description: Inhibition of mouse carbonic anhydrase 15 after 15 mins by stopped flow CO2 hydration method

[4] = biological target: Carbonic anhydrase 6 (Homo sapiens, UniProt P23280)
Chain of Carbonic anhydrase 6 (P23280 whole entry): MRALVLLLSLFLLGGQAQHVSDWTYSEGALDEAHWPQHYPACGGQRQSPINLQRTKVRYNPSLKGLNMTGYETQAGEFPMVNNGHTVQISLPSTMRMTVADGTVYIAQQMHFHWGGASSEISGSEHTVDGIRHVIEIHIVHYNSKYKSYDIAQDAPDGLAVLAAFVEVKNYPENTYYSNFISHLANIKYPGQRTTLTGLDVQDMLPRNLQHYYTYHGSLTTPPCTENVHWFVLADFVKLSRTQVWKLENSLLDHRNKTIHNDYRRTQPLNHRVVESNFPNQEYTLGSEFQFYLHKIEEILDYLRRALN
Description: Inhibition of human carbonic anhydrase 6 after 15 mins by stopped flow CO2 hydration method

[5] = biological target: Carbonic anhydrase 2 (Homo sapiens, UniProt P00918)
Description: Inhibition of human carbonic anhydrase 2 after 15 mins by stopped flow CO2 hydration method

[6] = biological target: Carbonic anhydrase 3 (Homo sapiens, UniProt P07451)
Chain of Carbonic anhydrase 3 (P07451 whole entry): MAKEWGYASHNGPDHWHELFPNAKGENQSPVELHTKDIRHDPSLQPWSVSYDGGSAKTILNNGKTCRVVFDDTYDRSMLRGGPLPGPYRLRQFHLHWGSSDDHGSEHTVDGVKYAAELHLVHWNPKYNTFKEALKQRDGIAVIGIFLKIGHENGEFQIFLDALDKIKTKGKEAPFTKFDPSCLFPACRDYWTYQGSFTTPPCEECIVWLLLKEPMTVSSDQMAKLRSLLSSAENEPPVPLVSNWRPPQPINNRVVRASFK
Description: Inhibition of human carbonic anhydrase 3 after 15 mins by stopped flow CO2 hydration method

[7] = biological target: Carbonic anhydrase 9 (Homo sapiens, UniProt Q16790)
Description: Inhibition of human carbonic anhydrase 9 after 15 mins by stopped flow CO2 hydration method

[8] = biological target: Carbonic anhydrase 5A, mitochondrial (Homo sapiens, UniProt P35218)
Chain of Carbonic anhydrase 5A, mitochondrial (P35218 whole entry): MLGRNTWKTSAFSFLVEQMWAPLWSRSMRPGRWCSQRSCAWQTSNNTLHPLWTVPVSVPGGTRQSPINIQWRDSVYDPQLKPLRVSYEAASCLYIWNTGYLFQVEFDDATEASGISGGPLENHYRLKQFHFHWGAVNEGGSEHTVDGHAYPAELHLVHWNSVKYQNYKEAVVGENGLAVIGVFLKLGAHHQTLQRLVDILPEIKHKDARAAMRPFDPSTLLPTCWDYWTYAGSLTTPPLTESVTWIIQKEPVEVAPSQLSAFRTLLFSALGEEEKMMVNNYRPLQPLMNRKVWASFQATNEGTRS
Description: Inhibition of human carbonic anhydrase 5a after 15 mins by stopped flow CO2 hydration method

[9] = biological target: Carbonic anhydrase 4 (Homo sapiens, UniProt P22748)
Chain of Carbonic anhydrase 4 (P22748 whole entry): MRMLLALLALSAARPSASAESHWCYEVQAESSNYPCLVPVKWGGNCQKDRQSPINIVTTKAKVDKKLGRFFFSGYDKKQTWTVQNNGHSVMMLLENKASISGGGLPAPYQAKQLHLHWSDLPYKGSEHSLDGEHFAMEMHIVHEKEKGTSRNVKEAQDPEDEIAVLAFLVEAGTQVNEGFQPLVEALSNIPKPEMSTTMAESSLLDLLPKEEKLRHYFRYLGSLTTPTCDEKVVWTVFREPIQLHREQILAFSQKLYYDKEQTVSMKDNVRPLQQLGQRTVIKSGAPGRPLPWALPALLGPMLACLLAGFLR
Description: Inhibition of human carbonic anhydrase 4 after 15 mins by stopped flow CO2 hydration method

[10] = biological target: Carbonic anhydrase 14 (Homo sapiens, UniProt Q9ULX7)
Chain of Carbonic anhydrase 14 (Q9ULX7 whole entry): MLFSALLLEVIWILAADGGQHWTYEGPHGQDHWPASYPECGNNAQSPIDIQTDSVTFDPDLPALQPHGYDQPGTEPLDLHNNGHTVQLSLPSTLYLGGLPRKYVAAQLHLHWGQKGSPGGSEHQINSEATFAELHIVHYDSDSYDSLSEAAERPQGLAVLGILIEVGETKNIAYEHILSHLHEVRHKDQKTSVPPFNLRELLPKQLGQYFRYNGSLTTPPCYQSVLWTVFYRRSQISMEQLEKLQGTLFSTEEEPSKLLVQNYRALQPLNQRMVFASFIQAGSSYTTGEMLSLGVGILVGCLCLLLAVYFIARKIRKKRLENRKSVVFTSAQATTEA
Description: Inhibition of human carbonic anhydrase 14 after 15 mins by stopped flow CO2 hydration method

[11] = biological target: Carbonic anhydrase 1 (Homo sapiens, UniProt P00915)
Chain of Carbonic anhydrase 1 (P00915 whole entry): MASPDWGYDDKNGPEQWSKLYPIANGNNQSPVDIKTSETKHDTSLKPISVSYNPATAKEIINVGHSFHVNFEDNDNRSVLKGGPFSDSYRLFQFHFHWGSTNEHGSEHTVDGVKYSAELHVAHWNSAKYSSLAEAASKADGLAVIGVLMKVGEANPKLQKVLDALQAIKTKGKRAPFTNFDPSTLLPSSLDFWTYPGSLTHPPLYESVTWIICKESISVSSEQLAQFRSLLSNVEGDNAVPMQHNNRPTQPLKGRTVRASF
Description: Inhibition of human carbonic anhydrase 1 after 15 mins by stopped flow CO2 hydration method

[12] = biological target: Carbonic anhydrase 12 (Homo sapiens, UniProt O43570)
Chain of Carbonic anhydrase 12 (O43570 whole entry): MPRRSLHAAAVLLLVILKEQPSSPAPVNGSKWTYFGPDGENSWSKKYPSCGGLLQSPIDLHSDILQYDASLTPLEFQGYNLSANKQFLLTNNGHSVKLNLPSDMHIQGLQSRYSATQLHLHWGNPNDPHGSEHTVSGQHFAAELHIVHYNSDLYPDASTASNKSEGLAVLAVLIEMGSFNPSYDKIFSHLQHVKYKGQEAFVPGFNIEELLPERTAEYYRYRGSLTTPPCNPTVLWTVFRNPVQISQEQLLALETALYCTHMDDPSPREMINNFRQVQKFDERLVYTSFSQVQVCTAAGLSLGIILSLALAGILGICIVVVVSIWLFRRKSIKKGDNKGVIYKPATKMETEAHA
Description: Inhibition of human carbonic anhydrase 12 after 15 mins by stopped flow CO2 hydration method

[13] = biological target: Carbonic anhydrase 7 (Homo sapiens, UniProt P43166)
Chain of Carbonic anhydrase 7 (P43166 whole entry): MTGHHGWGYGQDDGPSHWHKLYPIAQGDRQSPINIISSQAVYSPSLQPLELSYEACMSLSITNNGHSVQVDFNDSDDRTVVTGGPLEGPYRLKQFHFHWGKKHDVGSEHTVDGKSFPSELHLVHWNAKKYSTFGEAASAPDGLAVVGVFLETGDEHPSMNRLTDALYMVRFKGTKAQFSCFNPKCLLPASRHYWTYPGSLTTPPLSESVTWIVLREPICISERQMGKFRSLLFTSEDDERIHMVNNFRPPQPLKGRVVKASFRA
Description: Inhibition of human carbonic anhydrase 7 after 15 mins by stopped flow CO2 hydration method

Chain of Carbonic anhydrase 13 (Q8N1Q1 whole entry): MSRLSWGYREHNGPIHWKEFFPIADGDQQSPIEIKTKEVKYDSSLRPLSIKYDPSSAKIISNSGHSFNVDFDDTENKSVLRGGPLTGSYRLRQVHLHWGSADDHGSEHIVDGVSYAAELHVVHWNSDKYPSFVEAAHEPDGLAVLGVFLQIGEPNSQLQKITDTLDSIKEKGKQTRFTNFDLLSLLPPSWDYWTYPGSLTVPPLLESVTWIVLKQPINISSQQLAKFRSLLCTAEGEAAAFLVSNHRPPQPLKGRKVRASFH
Chain of Carbonic anhydrase 5B, mitochondrial (Q9Y2D0 whole entry): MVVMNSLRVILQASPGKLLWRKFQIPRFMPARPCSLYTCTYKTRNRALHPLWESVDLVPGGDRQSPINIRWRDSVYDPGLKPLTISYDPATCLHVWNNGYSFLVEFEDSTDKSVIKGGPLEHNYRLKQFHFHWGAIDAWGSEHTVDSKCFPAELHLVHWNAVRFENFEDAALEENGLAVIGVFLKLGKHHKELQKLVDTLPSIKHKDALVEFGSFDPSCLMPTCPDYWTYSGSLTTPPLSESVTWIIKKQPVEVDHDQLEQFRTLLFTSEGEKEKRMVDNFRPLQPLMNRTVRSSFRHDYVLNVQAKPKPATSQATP

SMILES | Ki [1] [µM] | Ki [2] [µM] | Ki [3] [µM] | Ki [4] [µM] | Ki [5] [µM] | Ki [6] [µM] | Ki [7] [µM] | Ki [8] [µM] | Ki [9] [µM] | Ki [10] [µM] | Ki [11] [µM] | Ki [12] [µM] | Ki [13] [µM]
Oc1ccccc1 [PHENOL] | 697 | – | – | – | – | – | – | – | – | – | – | – | –
Oc1ccc(/C=C/c2cc(O)cc(O)c2)cc1 [RESVERATROL] | 4.09 | 4.64 | 9.36 | 8.07 | 2.77 | 9.09 | 0.81 | 4.75 | 4.47 | 0.83 | 2.21 | 0.95 | 4.35
CC(CCc1ccc(O)cc1)NCCc1ccc(O)c(O)c1 (centres undefined) [DOBUTAMINE] | 9.53 | 0.89 | 0.39 | 9.47 | 0.48 | 7.4 | 9.82 | 0.73 | 8.98 | 12 | 1.92 | 4.35 | 4.3
O=C(O)/C=C/c1ccccc1O [O-COUMARIC ACID] | > 1000 | 578 | > 1000 | > 1000 | 9.2 | > 1000 | > 1000 | > 1000 | 62.3 | > 1000 | 3.1 | > 1000 | > 1000
Oc1cc(O)c2c(c1)O[C@H](c1ccc(O)c(O)c1)[C@@H](O)C2 [CATECHIN] | 10.5 | 4.02 | 7.68 | 4.91 | 1.84 | 3.58 | 5.03 | 4.21 | 4.9 | 11.5 | 2.42 | 4.72 | 0.45
COc1cc(/C=C/C(=O)CC(=O)/C=C/c2ccc(O)c(OC)c2)ccc1O [CURCUMIN] | 6.85 | 9.46 | 5.09 | 9.94 | – | 11.3 | 4.05 | 10.2 | 4.97 | 11.7 | – | 3.48 | 9.3
